biological target: T1, hMAGL (Homo sapiens, UniProt Q99685); assay: 2-AG assay: MAGL inhibition, hydrolysis of 2-arachidonoylglycerol to arachidonic acid followed by mass spectrometry; assay type: biochemical
T1 sequence (Q99685 1-303): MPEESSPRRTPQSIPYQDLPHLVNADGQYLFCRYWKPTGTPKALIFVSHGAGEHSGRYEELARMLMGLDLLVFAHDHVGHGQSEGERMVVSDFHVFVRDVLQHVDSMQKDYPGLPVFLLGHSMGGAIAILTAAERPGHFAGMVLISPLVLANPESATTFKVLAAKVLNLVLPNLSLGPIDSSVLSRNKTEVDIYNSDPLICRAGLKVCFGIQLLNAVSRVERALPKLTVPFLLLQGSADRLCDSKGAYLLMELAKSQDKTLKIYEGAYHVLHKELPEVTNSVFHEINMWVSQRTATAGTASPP
Outline: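 Read-out is LC-MS/MS of arachidonic acid released from 2-arachidonoylglycerol (8 μM final), normalised to d8-arachidonic acid internal standard after acetonitrile quench. Enzyme […] and compound were pre-mixed 15 min, then reacted 30 min, both at RT, in Tris/EDTA buffer with 0.01% Tween-20 and 2.5% DMSO.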

Compound	IC50 [nM]
O=C(N1CC2(CC(n3cnc(C4(O)CC4)n3)C2)C1)N1CC2(CN(Cc3ncc(C(F)F)s3)C2)C1 [Example 186]	84.1
Cn1ncc(C(F)(F)F)c1CN1CCC2(CC1)CN(C(=O)N1CC3(CC(n4cnc(C(F)(F)F)n4)C3)C1)C2 [Example 65, [7-[[2-methyl-4-(trifluoromethyl)pyrazol-3-yl]methyl]-2,7-diazaspiro[3.5]nonan-2-yl]-[6-[3-(trifluoromethyl)-1,2,4-triazol-1-yl]-2-azaspiro[3.3]heptan-2-yl]methanone]	0.87
O=C(N1CC2(CC(Cn3ccnc3C(F)(F)F)C2)C1)N1CC2(CC(n3cnc(C4(O)CC4)n3)C2)C1 [Example 146]	14.8
Cc1cc(C(F)F)n(CC2CC3(C2)CN(C(=O)N2CC4(CC(n5cnc(C6CC6)n5)C4)C2)C3)n1 [Example 92]	0.21
O=C(N1CC2(CC(n3cnc(C4CC4)n3)C2)C1)N1CC2(CN(Cc3cnn(C(F)(F)F)c3)C2)C1 [Example 182, [6-(3-cyclopropyl-1,2,4-triazol-1-yl)-2-azaspiro[3.3]heptan-2-yl]-[6-[[1-(trifluoromethyl)pyrazol-4-yl]methyl]-2,6-diazaspiro[3.3]heptan-2-yl]methanone]	33.9
O=C(N1CC2(CC(n3cnc(C4CC4)n3)C2)C1)N1CC2(CN(Cc3nc(C(F)(F)F)co3)C2)C1 [Example 217, [6-(3-cyclopropyl-1,2,4-triazol-1-yl)-2-azaspiro[3.3]heptan-2-yl]-[6-[[4-(trifluoromethyl)oxazol-2-yl]methyl]-2,6-diazaspiro[3.3]heptan-2-yl]methanone]	13.7
CC(C)(C)c1nnc(CN2CC3(C2)CN(C(=O)N2CC4(CC(n5cnc(C6CC6)n5)C4)C2)C3)s1 [Example 209, [6-[(5-tert-butyl-1,3,4-thiadiazol-2-yl)methyl]-2,6-diazaspiro[3.3]heptan-2-yl]-[6-(3-cyclopropyl-1,2,4-triazol-1-yl)-2-azaspiro[3.3]heptan-2-yl]methanone]	5.28
O=C(N1CC2(CC(n3cnc(C4(O)CC4)n3)C2)C1)N1CC2(CN(Cc3cnc(C(F)(F)F)s3)C2)C1 [Example 19]	34.5
O=C(N1CC2(CC(n3cnc(C(F)(F)F)n3)C2)C1)N1CC2(CN(Cc3sncc3C(F)(F)F)C2)C1 [Example 178, [6-[[4-(trifluoromethyl)isothiazol-5-yl]methyl]-2,6-diazaspiro[3.3]heptan-2-yl]-[6-[3-(trifluoromethyl)-1,2,4-triazol-1-yl]-2-azaspiro[3.3]heptan-2-yl]methanone]	10.5
O=C(N1CC2(CC(n3cnc(C(F)(F)F)n3)C2)C1)N1CC2(CN(Cc3nnnn3CC(F)(F)F)C2)C1 [Example 197, [6-[[1-(2,2,2-trifluoroethyl)tetrazol-5-yl]methyl]-2,6-diazaspiro[3.3]heptan-2-yl]-[6-[3-(trifluoromethyl)-1,2,4-triazol-1-yl]-2-azaspiro[3.3]heptan-2-yl]methanone]	445
Cc1nn(CC(F)(F)F)cc1CN1CC2(C1)CN(C(=O)N1CC3(CC(n4cnc(C5CC5)n4)C3)C1)C2 [Example 113, [6-(3-cyclopropyl-1,2,4-triazol-1-yl)-2-azaspiro[3.3]heptan-2-yl]-[6-[[3-methyl-1-(2,2,2-trifluoroethyl)pyrazol-4-yl]methyl]-2,6-diazaspiro[3.3]heptan-2-yl]methanone]	133
O=C(N1CC2(CCN(Cc3nc(C(F)(F)F)cs3)CC2)C1)N1CC2(CC(c3cc(C4CC4)n[nH]3)C2)C1 [Example 174, [6-(3-cyclopropyl-1H-pyrazol-5-yl)-2-azaspiro[3.3]heptan-2-yl]-[7-[[4-(trifluoromethyl)thiazol-2-yl]methyl]-2,7-diazaspiro[3.5]nonan-2-yl]methanone]	4.84

Continued, values first:

IC50 [nM]	Compound
18.7	O=C(N1CC2(CC(n3cnc(C(F)(F)F)n3)C2)C1)N1CC2(CN(Cc3cc(C(F)(F)F)[nH]n3)C2)C1 [Example 241, [6-[[5-(trifluoromethyl)-1H-pyrazol-3-yl]methyl]-2,6-diazaspiro[3.3]heptan-2-yl]-[6-[3-(trifluoromethyl)-1,2,4-triazol-1-yl]-2-azaspiro[3.3]heptan-2-yl]methanone]
3.54	N=S(=O)(c1cnn(CC2CC3(C2)CN(C(=O)N2CC4(CC(n5cnc(C(F)(F)F)n5)C4)C2)C3)c1)C(F)(F)F (centres unmarked) [Example 341, [6-[[4-(trifluoromethylsulfonimidoyl)pyrazol-1-yl]methyl]-2-azaspiro[3.3]heptan-2-yl]-[6-[3-(trifluoromethyl)-1,2,4-triazol-1-yl]-2-azaspiro[3.3]heptan-2-yl]methanone]
2.22	O=C(N1CC2(CC(Cn3ncnc3C(F)(F)F)C2)C1)N1CC2(CC(n3cnc(C4CC4)n3)C2)C1 [Example 345, [6-(3-cyclopropyl-1,2,4-triazol-1-yl)-2-azaspiro[3.3]heptan-2-yl]-[6-[[5-(trifluoromethyl)-1,2,4-triazol-1-yl]methyl]-2-azaspiro[3.3]heptan-2-yl]methanone]
4.89	Cn1nc(C2CC2)cc1CN1CC2(C1)CN(C(=O)N1CC3(CC(c4cc(C5CC5)n[nH]4)C3)C1)C2 [Example 270, [6-[(5-cyclopropyl-2-methyl-pyrazol-3-yl)methyl]-2,6-diazaspiro[3.3]heptan-2-yl]-[6-(3-cyclopropyl-1H-pyrazol-5-yl)-2-azaspiro[3.3]heptan-2-yl]methanone]
6.12	O=C(N1CC2(CC(Cc3nc(C(F)(F)F)c[nH]3)C2)C1)N1CC2(CC(n3cnc(C4(O)CC4)n3)C2)C1 [Example 337, [6-[3-(1-hydroxycyclopropyl)-1,2,4-triazol-1-yl]-2-azaspiro[3.3]heptan-2-yl]-[6-[[4-(trifluoromethyl)-1H-imidazol-2-yl]methyl]-2-azaspiro [3.3]heptan-2-yl]methanone]
0.3	O=C(N1CC2(CC(Cc3cnn4cc(C(F)(F)F)cnc34)C2)C1)N1CC2(CC(n3cnc(C4CC4)n3)C2)C1 [Example 360, [6-(3-cyclopropyl-1,2,4-triazol-1-yl)-2-azaspiro[3.3]heptan-2-yl]-[6-[[6-(trifluoromethyl)pyrazolo[1,5-a]pyrimidin-3-yl]methyl]-2-azaspiro[3.3]heptan-2-yl]methanone]
672	O=C(N1CC2(CC(n3cnc(C4CC4)n3)C2)C1)N1CC2(CN(Cc3nc(C(F)(F)F)n[nH]3)C2)C1 [Example 230, [6-(3-cyclopropyl-1,2,4-triazol-1-yl)-2-azaspiro[3.3]heptan-2-yl]-[6-[[3-(trifluoromethyl)-1H-1,2,4-triazol-5-yl]methyl]-2,6-diazaspiro[3.3]heptan-2-yl]methanone]
0.92	Cn1ncc(OC2CC3(C2)CN(C(=O)N2CC4(CC(n5cnc(C6CC6)n5)C4)C2)C3)c1C(F)(F)F [Example 247, [6-(3-cyclopropyl-1,2,4-triazol-1-yl)-2-azaspiro[3.3]heptan-2-yl]-[6-[1-methyl-5-(trifluoromethyl)pyrazol-4-yl]oxy-2-azaspiro[3.3]heptan-2-yl]methanone]
7	Cn1nc(C2CC2)cc1CN1CC2(C1)CN(C(=O)N1CC3(CC(n4cnc(C5CC5)n4)C3)C1)C2 [Example 272, [6-[(5-cyclopropyl-2-methyl-pyrazol-3-yl)methyl]-2,6-diazaspiro[3.3]heptan-2-yl]-[6-(3-cyclopropyl-1,2,4-triazol-1-yl)-2-azaspiro[3.3]heptan-2-yl]methanone]
4.31	O=C(N1CC2(CC(Cn3ncc(C(F)(F)F)n3)C2)C1)N1CC2(CC(n3cnc(C4(O)CC4)n3)C2)C1 [Example 292, [6-[3-(1-hydroxycyclopropyl)-1,2,4-triazol-1-yl]-2-azaspiro[3.3]heptan-2-yl]-[6-[[4-(trifluoromethyl)triazol-2-yl]methyl]-2-azaspiro[3.3]heptan-2-yl]methanone]
34.6	O=C(N1CC2(CC(n3cnc(C4CC4)n3)C2)C1)N1CC2(CN(Cc3ccnn3C(F)(F)F)C2)C1 [Example 226, [6-(3-cyclopropyl-1,2,4-triazol-1-yl)-2-azaspiro[3.3]heptan-2-yl]-[6-[[2-(trifluoromethyl)pyrazol-3-yl]methyl]-2,6-diazaspiro[3.3]heptan-2-yl]methanone]
0.6	O=C(N1CC2(CC(Cc3cc(C4(C(F)(F)F)CC4)[nH]n3)C2)C1)N1CC2(CC(n3cnc(C(F)F)n3)C2)C1 [Example 352, [6-[3-(difluoromethyl)-1,2,4-triazol-1-yl]-2-azaspiro[3.3]heptan-2-yl]-[6-[[5-[1-(trifluoromethyl)cyclopropyl]-1H-pyrazol-3-yl]methyl]-2-azaspiro[3.3]heptan-2-yl]methanone]
52.8	O=C(N1CC2(CC(Cc3n[nH]c(C(F)(F)F)n3)C2)C1)N1CC2(CC(n3cnc(C(F)F)n3)C2)C1 [Example 320, [6-[3-(difluoromethyl)-1,2,4-triazol-1-yl]-2-azaspiro[3.3]heptan-2-yl]-[6-[[5-(trifluoromethyl)-1H-1,2,4-triazol-3-yl]methyl]-2-azaspiro[3.3]heptan-2-yl]methanone]
11.8	Cn1nc(CC2CC3(C2)CN(C(=O)N2CC4(CC(n5cnc(C6(N)CC6)n5)C4)C2)C3)cc1C(F)(F)F [Example 330, [6-[3-(1-aminocyclopropyl)-1,2,4-triazol-1-yl]-2-azaspiro[3.3]heptan-2-yl]-[6-[[l-methyl-5-(trifluoromethyl)pyrazol-3-yl]methyl]-2-azaspiro[3.3]heptan-2-yl]methanone]

Reference: patent US20260374756A1, “HETEROCYCLIC COMPOUNDS AS INHIBITORS OF MONOACYLGLYCEROL LIPASE (MAGL)” (Hoffmann-La Roche Inc., priority 2022, published 2026)
